Results reported in article PMC11786100, “Chronic GIPR agonism results in pancreatic islet GIPR functional desensitisation” (Molecular Metabolism, 2025).
Like-named read-outs stand apart in the source and are kept apart here.

What was measured:
[1] = Peptide stability in complete medium with dispersed islet cells (cAMP bioactivity assay); assay type: in vitro ADME, mouse
Procedure: AD-293 cells were added to a 12-well plate and maintained in 2 ml complete DMEM. 1 μg of specified plasmid DNA was added to each well alongside Lipofectamine 2000 (Thermo Fisher, UK). cAMP production was quantified 24 hours following transfection using homogenous time resolved fluorescence (HTRF), specifically the cAMP-Gs Dynamic 2 kit (Cisbio, France). Peptides and cells were diluted in DMEM + 1% P/S + 0.1% BSA. For peptide stability testing, cells, fresh peptide and peptide incubated with dispersed islet cells were diluted in RPMI-1640 (Thermo Fisher, UK) + 10% FBS + 1% P/S. 10 μl of peptide and 10 μl of cell suspension were added in duplicate to an opaque 96-well plate (Grenier Bio-One, Austria) and incubated at 37°C for 30 minutes. 10 μl of cAMP-d2 and anti-cAMP cryptate, both diluted in lysis buffer, were added in quick succession as per the manufacturer’s protocol. The plates were then incubated at room temperature for 45 minutes and read using the SpectraMax i3x (Molecular Devices, US).
Three-parameter curve fitting was applied.

dispersed islet cells = test: cADDis cAMP concentration-response in dispersed islets; assay type: cell-based, mouse; conditions: three-parameter fit, n=5, read-out: calculated EC50, cAMP in dispersed islets
Procedure: (§1) Primary cultures of mouse hypothalamic neurons and dispersed pancreatic islets were transduced with the Green Up cADDis biosensor (Montana Molecular, US). Pancreatic islets from CAMPER^Pdx−1-CreERT2 and CAMPER^Som-Cre mice were not transduced. Cells were pre-treated with peptides as specified, dissolved in culture media. Following 4 h or overnight incubation and a 1-hour washout period, cells were imaged using an epifluorescence microscope at baseline (t = 3 min), following peptide addition (t = 10 min, unless specified otherwise), and following 3-isobutyl-1-methylxanthine (IBMX) (500 μM) and forskolin (FSK) (50 μM) addition (t = 3 min) to maximally stimulate the sensor. In pre-treatment experiments, islet cell fluorescence was normalised to the IBMX/FSK response which was set as 100%. In non-pre-treatment experiments, islet and neuronal cell fluorescence was normalised to both the baseline and IBMX/FSK response. The area-under-the-curve (AUC) for each cell was quantified. Full details of isolation, transduction, plating, imaging and image analysis is provided in the supplementary methods.
Dispersed islets: A cell suspension of dispersed islets in RPMI-1640 + 10% FBS + 1% P/S (islet complete media) was seeded onto square 96 well µ-plates (Ibidi, UK), coated with 0.01% poly-D-lysine hydrobromide (Sigma-Aldrich, UK) and 25 µg/ml mouse laminin (Thermo Fisher, UK). For cADDis experiments, cells were transduced with the Green Up cADDis biosensor (15 μL of cADDis, 1.5 μL of sodium butyrate per well: Montana Molecular, US). Cells were incubated overnight (37°C, 95%:5% O2:CO2 ratio).
Cells were imaged in Krebs buffer with 6 mM glucose and 0.1% BSA (unless 10% FBS was specified) at 37°C using an automated epifluorescence microscope (modified Nikon Ti-2E with LED illumination). Multiple fields of view (FOV) were imaged in parallel (for islets, multiple wells of a 96 well plate were imaged in parallel), allowing hundreds to thousands of cells to be imaged every minute throughout the time course. For all acquisitions, the first three minutes were baseline recording pre-peptide addition and the last three minutes were a positive control following IBMX (500 μM) and forskolin (50 μM) addition to maximally stimulate the sensor.
cAMP quantification from the raw islet/neuronal images was performed using Fiji v1.54f (NIH). For each acquisition, a flat-field (BaSiC [3*]) correction was applied, and intensity thresholding enabled cell-containing regions to be identified as regions-of-interest (ROIs). The fluorescence intensity of each ROI was measured at each time point. In pre-treatment experiments, islet cell fluorescence was normalised to the maximal IBMX/FSK response which was set as 100%. For non-pre-treatment experiments, neuronal and islet cell fluorescence were normalised to both the baseline and maximal IBMX/FSK response. The AUC during peptide stimulation for each cell was quantified. Neurons with an AUC greater than 75 (representing a response 15 % of the maximum IBMX/FSK response) were deemed responder neurons.
We aimed to determine appropriate pre-treatment doses of GIPR agonists which would produce detectable cAMP responses, indicating target engagement, and were compatible with an extended incubation in complete medium, which could influence ligand availability via binding to serum proteins. We first performed concentration-response analysis in dispersed islets transduced with cADDis in the presence of 10% FBS (Figure S2A, B, D, E).
To determine a sensible re-challenge dose of GIPR agonists, a further concentration-response analysis was conducted in cADDis-transduced dispersed islets in imaging buffer (Krebs buffer + 6 mM glucose + 0.1% BSA, i.e. without FBS) (Figure S2C, F). […] Therefore, 1 μM of GIP108 and 100 nM of GIP were chosen as peri-maximal re-stimulation doses for the remaining islet cAMP assays.
GLP-1R agonist pre-treatment dose selection was performed concurrently with GIPR agonist dose selection.

[2] = system: murine hypothalamic neurons; test: cADDis cAMP imaging in primary hypothalamic neurons; assay type: cell-based, mouse; conditions: 100 nM and 1 μM, 5-minute stimulation, n=4
Procedure: as §1
Primary cultures of hypothalamic neurons were prepared from 6-week-old male and female mice as described previously [2*]. A minor difference was that the neuronal pellet was resuspended in Neurobasal-A medium containing 0.25% Glutamax, 2% B27 and 25 ng/ml NGF (all Thermo Fisher, UK) (neuronal culture media).
Hypothalamic neurons: 100 μL cell suspension of neurons in neuronal culture media was seeded on 35 mm petri dish (MatTek Corporation), pre-coated with 0.01% poly-D-lysine hydrobromide. […]
cAMP quantification from the raw islet/neuronal images was performed using Fiji v1.54f (NIH). […] The fluorescence intensity of each ROI was measured at each time point. In pre-treatment experiments, islet cell fluorescence was normalised to the maximal IBMX/FSK response which was set as 100%. For non-pre-treatment experiments, neuronal and islet cell fluorescence were normalised to both the baseline and maximal IBMX/FSK response. The AUC during peptide stimulation for each cell was quantified. […]

[3] = system: lean and HFD-induced obese mice; test: In vivo GIPR desensitisation: IPGTT and insulin bleeds; design: species or system mouse
Procedure: (§2) In all in vivo studies, mice were randomised by body weight into groups. Mice received a 50 μL subcutaneous injection of saline (0.9% sodium chloride) or peptide at a specified dose, diluted in saline. Peptide dosing was in nmol per kg of total body weight. For the assessment of the chronic effects of GIP108, mice were injected daily for 15 days. Body composition was measured by EchoMRI on day −1 and day 15. An intraperitoneal glucose tolerance test (IPGTT) (2 g/kg) was conducted on day 14, following 6 h of fasting and 2 h after peptide injection. Non-fasting plasma leptin (ab199082, Abcam, UK), adiponectin (ab226900, Abcam, UK) and amino acids (ab65347, Abcam, UK) were measured on day 16. For the assessments of in vivo GIPR desensitisation, mice were injected at 17:00 with vehicle or GIP108 (30 nmol/kg) prior to an acute food intake study/IPGTT/insulin bleeds conducted the following day. Full details of the in vivo studies are provided in the supplementary methods.
Mice were fasted at 08:00. For all studies, 20% glucose was administered at 14:00, with the injection volume adjusted to the body weight of the mouse such that each mouse received glucose at 2 g/kg. To assess effects of GIP108 on day 14 of the chronic study, mice were dosed with saline or GIP108 at a specified dose at 12:00. […] Blood glucose measurements were taken via tail vein venesection at baseline, t=15, t=30, t=60, t=90 and t=120 mins. Glucose AUC is calculated using y=0. Glucose readings were measured in mmol/L using the same GlucoRx glucometer.
Mice were fasted at 08:00. At 14:00, mice received an intraperitoneal injection with 20% glucose, with the injection volume adjusted to the body weight of the mouse such that each mouse received glucose at 2 g/kg. […] Blood samples were taken via tail vein venesection at baseline and t=15 minutes following injection.
Leptin, adiponectin and amino acids were quantified following chronic GIP108 administration. Plasma amino acids were measured using the Abcam L-amino acid assay kit (ab65347, Abcam, UK). Plasma adiponectin was measured using the Abcam mouse adiponectin ELISA kit (ab226900, Abcam, UK). Plasma leptin was measured using the Abcam mouse leptin ELISA kit (ab199082, Abcam, UK). All assays were performed according to the manufacturer’s protocol and were read using the SpectraMax i3x Microplate Reader (Molecular Devices, US).

HFD-induced obese mice = test: Acute fast-refeed food intake study; assay type: in vivo, mouse; conditions: 200 nmol/kg; vehicle and GIP108 (30 nmol/kg) pre-treated HFD-induced obese mice; n = 37–40
Procedure: as §2
Food intake was measured at t=30, t=60, t=120 and t=240 mins.

[4] = 1 μM in complete medium with dispersed islet cells, cAMP bioactivity in mouse GIPR AD-293 cells

Row | concentration remaining from 0.5 nM after 24 hours [1] | concentration remaining from 5 nM after 24 hours [1] | Molecule | EC50 (dispersed islet cells; imaging buffer (Krebs buffer + 6 mM glucose + 0.1% BSA, without FBS)) | EC50 (dispersed islet cells; in the presence of 10% FBS, stepwise addition) | stability at 4 hours [1, 4] | stability at 24 hours [1, 4] | cAMP response of hypothalamic neurons [2] | glucose tolerance during IPGTT ([3]; hGIP 50 nmol/kg with i.p. glucose, lean and HFD-induced obese mice given s.c. vehicle 21 h prior, n = 14–16) | glucose tolerance during IPGTT ([3]; hGIP 500 nmol/kg, lean and obese mice pre-treated with GIP108 (30 nmol/kg), n=6-8) | food intake, acute fast-refeed study (HFD-induced obese mice)
1 | 0.12 nM | 0.97 nM | CCCCCCCCCCCCCCCC(=O)N[C@@H](CCC(=O)NCCCC[C@H](NC(=O)[C@H](C)NC(=O)[C@H](C)NC(=O)[C@H](CCC(N)=O)NC(=O)CNC(=O)[C@H](CCC(=O)O)NC(=O)[C@H](CC(C)C)NC(=O)[C@H](Cc1ccc(O)cc1)NC(=O)[C@H](CO)NC(=O)[C@H](CO)NC(=O)[C@@H](NC(=O)[C@H](CC(=O)O)NC(=O)[C@H](CO)NC(=O)[C@@H](NC(=O)[C@H](Cc1ccccc1)NC(=O)[C@@H](NC(=O)CNC(=O)[C@H](CCC(=O)O)NC(=O)[C@H](C)NC(=O)[C@@H](N)Cc1cnc[nH]1)[C@@H](C)O)[C@@H](C)O)C(C)C)C(=O)N[C@@H](CCC(=O)O)C(=O)N[C@@H](Cc1ccccc1)C(=O)N[C@H](C(=O)N[C@@H](C)C(=O)N[C@@H](Cc1c[nH]c2ccccc12)C(=O)N[C@@H](CC(C)C)C(=O)N[C@H](C(=O)N[C@@H](CCCNC(=N)N)C(=O)NCC(=O)N[C@@H](CCCNC(=N)N)C(=O)NCC(=O)O)C(C)C)[C@@H](C)CC)C(=O)O [liraglutide] | – | – | – | – | – | – | – | –
2 | – | – | human GIP(1–42) [hGIP] | 6.37 nM | 69.4 nM | remained stable at 4 hours | not 24 hours | failed to show detectable responses | significantly improved glucose tolerance | still able to improve glucose tolerance | modest reductions in food intake
